Reference: ChEMBL document CHEMBL3885861, “Open TG-GATES”
Structures can show the parent of a compound that is named as a salt.

Species: Rattus norvegicus
Assay: Open TG-GATES - Regimen: Single
Format: toxicity, organism-based, Sprague-Dawley
Parameters: regimen Single, gender Male, age 6 weeks
Conditions: in vivo, ip, 240 mg/kg, route intraperitoneal injection, dose level Middle; for APTT / Bas / Eos / Fbg / Hb / Ht / Lym / MCH / MCHC / MCV / Mono / Neu / PT / Plat / RBC / Ret / WBC: tissue Blood; for KIDNEY_L / KIDNEY_R / KIDNEY_TOTAL: tissue Kidney; for LIVER: tissue Liver; for A/G / ALP / ALT / AST / BUN / CRE / Ca / Cl / DBIL / GLC / IP / K / LDH / Na / PL / RALB / TBIL / TC / TG / TP / gamma-GTP: tissue Plasma

## CCOC(=O)/C=C\C(=O)OCC [DIETHYL MALEATE]
3 h
  TERMINAL_BW: 196.7 g
  APTT: 16 s
  Bas: 0%
  Eos: 1%
  Fbg: 206.2 mg/dL
  Hb: 13.4 g/dL
  Ht: 40.3%
  Lym: 72%
  MCH: 21.3 pg
  MCHC: 33.3%
  MCV: 63.8 fL
  Mono: 5.6%
  Neu: 21.6%
  PT: 12.4 s
  Plat: 124.8 x10_4/uL
  RBC: 631.8 x10_4/ul
  Ret: 9.7%
  WBC: 90.3 x10_2/uL
  KIDNEY_L: 0.9 g
  KIDNEY_R: 0.9 g
  KIDNEY_TOTAL: 1.8 g
  LIVER: 8.5 g
  A/G: 2.1
  ALP: 700.6 IU/L
  ALT: 35.8 IU/L
  AST: 80.6 IU/L
  BUN: 17 mg/dL
  CRE: 0.5 mg/dL
  Ca: 10.9 mg/dL
  Cl: 105.4 meq/L
  DBIL: 0.02 mg/dL
  GLC: 191.8 mg/dL
  IP: 10.9 mg/dL
  K: 5.2 meq/L
  LDH: 147 IU/L
  Na: 138.4 meq/L
  PL: 126 mg/dL
  RALB: 3.6 g/dL
  TBIL: 0.4 mg/dL
  TC: 71.8 mg/dL
  TG: 30.4 mg/dL
  TP: 5.3 g/dL
  gamma-GTP: 1.2 IU/L
6 h
  TERMINAL_BW: 199.7 g
  APTT: 16.1 s
  Bas: 0%
  Eos: 0.8%
  Fbg: 210.2 mg/dL
  Hb: 13 g/dL
  Ht: 38.9%
  Lym: 71.2%
  MCH: 22 pg
  MCHC: 33.3%
  MCV: 66 fL
  Mono: 6.8%
  Neu: 21.4%
  PT: 12.2 s
  Plat: 121.8 x10_4/uL
  RBC: 589.4 x10_4/ul
  Ret: 10.6%
  WBC: 107.7 x10_2/uL
  KIDNEY_L: 0.9 g
  KIDNEY_R: 0.9 g
  KIDNEY_TOTAL: 1.9 g
  LIVER: 8.6 g
  A/G: 1.9
  ALP: 729.6 IU/L
  ALT: 35 IU/L
  AST: 69.8 IU/L
  BUN: 14.8 mg/dL
  CRE: 0.5 mg/dL
  Ca: 10.7 mg/dL
  Cl: 106.6 meq/L
  DBIL: 0.004 mg/dL
  GLC: 192.6 mg/dL
  IP: 9.8 mg/dL
  K: 5 meq/L
  LDH: 112.8 IU/L
  Na: 139.2 meq/L
  PL: 131 mg/dL
  RALB: 3.5 g/dL
  TBIL: 0.4 mg/dL
  TC: 82.8 mg/dL
  TG: 39.6 mg/dL
  TP: 5.3 g/dL
  gamma-GTP: 1.4 IU/L
9 h
  TERMINAL_BW: 195.9 g
  APTT: 17 s
  Bas: 0%
  Eos: 1%
  Fbg: 209 mg/dL
  Hb: 13 g/dL
  Ht: 38.5%
  Lym: 74.8%
  MCH: 21.8 pg
  MCHC: 33.6%
  MCV: 64.7 fL
  Mono: 5.4%
  Neu: 19%
  PT: 12.2 s
  Plat: 115.5 x10_4/uL
  RBC: 595 x10_4/ul
  Ret: 9.6%
  WBC: 90.7 x10_2/uL
  KIDNEY_L: 0.9 g
  KIDNEY_R: 0.9 g
  KIDNEY_TOTAL: 1.7 g
  LIVER: 7.8 g
  A/G: 2.2
  ALP: 849.2 IU/L
  ALT: 34.6 IU/L
  AST: 71.8 IU/L
  BUN: 12.2 mg/dL
  CRE: 0.4 mg/dL
  Ca: 10.7 mg/dL
  Cl: 108.2 meq/L
  DBIL: 0.016 mg/dL
  GLC: 188.4 mg/dL
  IP: 9.7 mg/dL
  K: 4.7 meq/L
  LDH: 77.6 IU/L
  Na: 139.4 meq/L
  PL: 120.4 mg/dL
  RALB: 3.5 g/dL
  TBIL: 0.4 mg/dL
  TC: 67.6 mg/dL
  TG: 33.4 mg/dL
  TP: 5.2 g/dL
  gamma-GTP: 1.2 IU/L
24 h
  TERMINAL_BW: 210.6 g
  APTT: 15.9 s
  Bas: 0%
  Eos: 1%
  Fbg: 218.4 mg/dL
  Hb: 13.5 g/dL
  Ht: 40%
  Lym: 81.2%
  MCH: 21.9 pg
  MCHC: 33.6%
  MCV: 65 fL
  Mono: 4%
  Neu: 14%
  PT: 11.5 s
  Plat: 114.2 x10_4/uL
  RBC: 615.6 x10_4/ul
  Ret: 9.9%
  WBC: 113 x10_2/uL
  KIDNEY_L: 0.9 g
  KIDNEY_R: 0.9 g
  KIDNEY_TOTAL: 1.9 g
  LIVER: 10.2 g
  A/G: 2.3
  ALP: 871.4 IU/L
  ALT: 39.8 IU/L
  AST: 68.2 IU/L
  BUN: 17.6 mg/dL
  CRE: 0.5 mg/dL
  Ca: 10.8 mg/dL
  Cl: 106.2 meq/L
  DBIL: 0.02 mg/dL
  GLC: 198 mg/dL
  IP: 8.2 mg/dL
  K: 5.2 meq/L
  LDH: 125.2 IU/L
  Na: 139 meq/L
  PL: 145.4 mg/dL
  RALB: 3.8 g/dL
  TBIL: 0.4 mg/dL
  TC: 78 mg/dL
  TG: 99.2 mg/dL
  TP: 5.5 g/dL
  gamma-GTP: 1.8 IU/L
